# Laboratory results taken from patent US20120270237A9, “METHODS FOR THE IDENTIFICATION OF KINASE INTERACTING MOLECULES AND FOR THE PURIFICATION OF KINASE PROTEINS” (Cellzone AG, priority 2009, published 2012).
# Key:
# Experiment in all cases: Kinobeads competition binding, HL60 cell lysate
# Parameters in all cases: endogenous in cells
# Conditions in all cases: 10 μM free compound
# [1] = molecular target: T1, PHKg2 (Homo sapiens, UniProt P15735)
# T1 sequence (P15735 1-406): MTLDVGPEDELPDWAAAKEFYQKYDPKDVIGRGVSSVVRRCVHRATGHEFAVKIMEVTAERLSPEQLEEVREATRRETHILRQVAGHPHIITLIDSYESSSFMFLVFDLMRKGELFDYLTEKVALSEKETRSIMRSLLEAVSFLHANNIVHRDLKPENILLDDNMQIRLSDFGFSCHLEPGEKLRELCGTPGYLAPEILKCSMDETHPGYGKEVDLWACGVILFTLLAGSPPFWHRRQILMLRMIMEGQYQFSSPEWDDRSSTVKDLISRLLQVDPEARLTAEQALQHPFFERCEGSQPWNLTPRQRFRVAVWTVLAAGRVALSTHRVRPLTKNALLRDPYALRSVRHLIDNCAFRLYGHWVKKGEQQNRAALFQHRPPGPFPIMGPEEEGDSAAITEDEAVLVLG
# Summary of the method: (§1)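 HL60 lysate (50 mg protein) pre-incubated with 10 μM free compound or 0.5% DMSO, then captured on beads bearing the immobilized compound for 2 h at 4 °C. Eluted proteins were trypsin-digested in-gel, iTRAQ-labeled and quantified by LC-MS/MS from reporter-ion peak areas relative to the DMSO control.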
# [2] = molecular target: MLK4 (Homo sapiens, UniProt Q5TCX8)
# Summary of the method: as §1
# [3] = molecular target: FES (Homo sapiens, UniProt P07332)
# Summary of the method: as §1
# [4] = molecular target: CK2a2 (Homo sapiens, UniProt P19784)
# Summary of the method: as §1
# [5] = molecular target: TGFbR1 (Homo sapiens, UniProt P36897)
# Summary of the method: as §1
# [6] = molecular target: IRE1 (Homo sapiens, UniProt O75460)
# Summary of the method: as §1
# [7] = molecular target: T2, PIP5K2A (Homo sapiens, UniProt P48426)
# T2 sequence (P48426 1-406): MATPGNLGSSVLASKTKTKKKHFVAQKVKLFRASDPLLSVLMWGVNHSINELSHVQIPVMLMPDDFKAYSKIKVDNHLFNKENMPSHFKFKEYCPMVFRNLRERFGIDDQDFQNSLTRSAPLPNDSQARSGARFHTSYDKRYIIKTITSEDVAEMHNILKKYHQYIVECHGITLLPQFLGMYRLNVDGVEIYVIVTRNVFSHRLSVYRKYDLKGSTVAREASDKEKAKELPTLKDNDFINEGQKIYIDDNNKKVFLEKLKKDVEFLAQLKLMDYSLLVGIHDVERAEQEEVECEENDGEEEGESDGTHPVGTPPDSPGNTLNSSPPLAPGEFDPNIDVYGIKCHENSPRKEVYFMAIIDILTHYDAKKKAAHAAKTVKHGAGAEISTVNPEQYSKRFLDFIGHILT
# Summary of the method: as §1
structure (smiles),measurement,setting,value
"CS(=O)(=O)Nc1ccccc1Nc1nc(Nc2cccc(OCCN)c2)ncc1Cl [CZC31326, N-(2-(2-(3-(2-aminoethoxy)phenylamino)-5-chloropyrimidin-4-ylamino)phenyl)methanesulfonamide]",inhibition at 10 µM,[1],96.6%
same,inhibition at 10 µM,[2],95%
same,inhibition at 10 µM,[3],96.3%
same,inhibition at 10 µM,[4],97.7%
same,inhibition at 10 µM,[5],95.6%
same,inhibition at 10 µM,[6],95.1%
same,inhibition at 10 µM,[7],97.6%
